Assay results reported in US7964607B2, “Pyrazolo[3,4-d]pyrimidine compounds” (Pfizer Inc., priority 2007, dated 2011).
Read-outs that look alike come from different tables or passages of the source.

Molecular target: T1, human recombinant PDE9 enzyme (Homo sapiens, UniProt O76083)
T1 construct: made in house; host or cells: SF-9 insect cells
Assay: Phosphodiesterase 9 (PDE9) inhibitory activity, Scintillation Proximity (SPA) assay
Type: biochemical
Conditions: human recombinant PDE9 from SF-9 cells, 50 nM [3H]cGMP, room temperature, 30 min
Outline: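 Scintillation proximity read-out of [3H]cGMP hydrolysis after 30 min at room temperature, with enzyme addition starting the reaction. The enzyme was human recombinant PDE9 expressed in SF-9 cells, titrated to keep substrate turnover at 20% or less. Compound wells held 2% DMSO final, and background was defined with excess PDE inhibitor.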

[1] = Examples 3-114, read-out: G5678A (U): IC50
[2] = additional compounds Ex. 115-228, read-out: G5678A (U):IC50

T1 sequence (O76083 whole entry): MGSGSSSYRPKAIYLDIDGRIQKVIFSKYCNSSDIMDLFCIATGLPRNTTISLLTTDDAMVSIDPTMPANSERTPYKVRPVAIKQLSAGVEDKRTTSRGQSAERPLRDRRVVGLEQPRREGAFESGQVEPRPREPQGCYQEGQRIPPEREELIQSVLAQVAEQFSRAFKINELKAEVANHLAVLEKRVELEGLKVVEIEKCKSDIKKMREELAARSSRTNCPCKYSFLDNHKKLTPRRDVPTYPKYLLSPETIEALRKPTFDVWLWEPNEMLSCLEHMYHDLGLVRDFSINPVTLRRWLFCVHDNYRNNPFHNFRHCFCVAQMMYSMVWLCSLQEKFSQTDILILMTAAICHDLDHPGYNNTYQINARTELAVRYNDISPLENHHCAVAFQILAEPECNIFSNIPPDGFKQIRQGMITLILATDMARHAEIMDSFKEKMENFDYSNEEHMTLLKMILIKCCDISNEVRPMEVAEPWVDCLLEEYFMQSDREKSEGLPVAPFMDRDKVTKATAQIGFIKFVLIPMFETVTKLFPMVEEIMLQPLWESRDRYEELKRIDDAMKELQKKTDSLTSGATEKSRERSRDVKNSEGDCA

IC50 [1]	IC50 [2]	Structure (SMILES)
11.4 nM	–	C[C@@H]1CN(Cc2ccccn2)C[C@H]1c1nc2c(cnn2C2CCCC2)c(=O)[nH]1 (racemic) [Example 26, 1-cyclopentyl-6-[(3,4-trans)-4-methyl-1-(pyridin-2-ylmethyl)pyrrolidin-3-yl]-1,5-dihydro-4H-pyrazolo[3,4-d]pyrimidin-4-one]
< 1 nM	–	CC[C@@H]1CN(Cc2cccc(C#N)c2)C[C@H]1c1nc2c(cnn2C2CCOCC2)c(=O)[nH]1 [Example 113, 3-({(3S,4S)-3-ethyl-4-[4-oxo-1-(tetrahydro-2H-pyran-4-yl)-4,5-dihydro-1H-pyrazolo[3,4-d]pyrimidin-6-yl]pyrrolidin-1-yl}methyl)benzonitrile]
12.8 nM	–	C[C@@H]1CN(Cc2ccccc2C(F)(F)F)C[C@H]1c1nc2c(cnn2C2CCOCC2)c(=O)[nH]1 [Example 99, 6-{(3S,4S)-4-methyl-1-[2-(trifluoromethyl)benzyl]pyrrolidin-3-yl}-1-(tetrahydro-2H-pyran-4-yl)-1,5-dihydro-4H-pyrazolo[3,4-d]pyrimidin-4-one]
14.7 nM	–	C[C@@H]1CN(Cc2ccnc(N(C)C)n2)C[C@H]1c1nc2c(cnn2C2CCCC2)c(=O)[nH]1 [Example 54, 1-cyclopentyl-6-[(3S,4S)-1-{[2-(dimethylamino)pyrimidin-4-yl]methyl}-4-methylpyrrolidin-3-yl]-1,5-dihydro-4H-pyrazolo[3,4-d]pyrimidin-4-one]
–	132 nM	Cc1ccc(CN2C[C@@H](C)[C@H](c3nc4c(cnn4C4CCCC4)c(=O)[nH]3)C2)cc1 (racemic) [Example 136, 1-cyclopentyl-6-[(3,4-trans)-4-methyl-1-(4-methylbenzyl)pyrrolidin-3-yl]-1,5-dihydro-4H-pyrazolo[3,4-d]pyrimidin-4-one]
–	286 nM	C[C@@H]1CN(CC2CCCC2)C[C@H]1c1nc2c(cnn2C2CCCC2)c(=O)[nH]1 (racemic) [Example 205, 1-cyclopentyl-6-[(3,4-trans)-1-(cyclopentylmethyl)-4-methylpyrrolidin-3-yl]-1,5-dihydro-4H-pyrazolo[3,4-d]pyrimidin-4-one]
–	3.78 nM	C[C@@H]1CN(Cc2nc3cnccc3n2C)C[C@H]1c1nc2c(cnn2C2CCCC2)c(=O)[nH]1 (racemic) [Example 226, 1-cyclopentyl-6-{(3,4-trans)-4-methyl-1-[(1-methyl-1H-imidazo[4,5-c]pyridin-2-yl)methyl]pyrrolidin-3-yl}-1,5-dihydro-4H-pyrazolo[3,4-d]pyrimidin-4-one]
–	27.9 nM	C[C@@H]1CN(Cc2cccc(C#N)c2)C[C@H]1c1nc2c(cnn2C2CCCC2)c(=O)[nH]1 (racemic) [Example 155, 3-{[(3,4-trans)-3-(1-cyclopentyl-4-oxo-4,5-dihydro-1H-pyrazolo[3,4-d]pyrimidin-6-yl)-4-methylpyrrolidin-1-yl]methyl}benzonitrile]
–	42.2 nM	COc1cc(CN2C[C@@H](C)[C@H](c3nc4c(cnn4C4CCCC4)c(=O)[nH]3)C2)cc(OC)c1 (racemic) [Example 152, 1-cyclopentyl-6-[(3,4-trans)-1-(3,5-dimethoxybenzyl)-4-methylpyrrolidin-3-yl]-1,5-dihydro-4H-pyrazolo[3,4-d]pyrimidin-4-one]
5.19 nM	–	CC(C)n1ncc2c(=O)[nH]c([C@@H]3CN(Cc4ccc5ccccc5n4)C[C@H]3C)nc21 (racemic) [Example 32, 1-isopropyl-6-[(3,4-trans)-4-methyl-1-(quinolin-2-ylmethyl)pyrrolidin-3-yl]-1,5-dihydro-4H-pyrazolo[3,4-d]pyrimidin-4-one]
–	44.7 nM	C[C@@H]1CN(Cc2cn3ccccc3n2)C[C@H]1c1nc2c(cnn2C2CCCC2)c(=O)[nH]1 (racemic) [Example 178, 1-cyclopentyl-6-[(3,4-trans)-1-(imidazo[1,2-a]pyridin-2-ylmethyl)-4-methylpyrrolidin-3-yl]-1,5-dihydro-4H-pyrazolo[3,4-d]pyrimidin-4-one]
0.903 nM	–	C[C@@H]1CN(Cc2cnc3ccccc3n2)C[C@H]1c1nc2c(cnn2C2CCOCC2)c(=O)[nH]1 [Example 85]
